Laboratory results: EPA's CvTdb concentration-time database

Assays:
Rat [1] = test: concentration in heart after dosing; conditions: dosed: Thiodiglycolic Acid, 20 mg/kg, iv
Rat [2] = test: concentration in liver after dosing; conditions: dosed: Thiodiglycolic Acid, 20 mg/kg, iv
Rat [3] = test: concentration in plasma after dosing
Rat [4] = test: concentration in thymus after dosing; conditions: dosed: Thiodiglycolic Acid, 20 mg/kg, iv
Rat [5] = test: concentration in plasma after dosing; conditions: 2 h; dosed: Thiodiglycolic Acid; 20 mg/kg; iv; Male; Harlan Sprague Dawley
Rat [6] = test: concentration in plasma after dosing; conditions: 4 h; dosed: Thiodiglycolic Acid; 20 mg/kg; iv; Male; Harlan Sprague Dawley
Rat [7] = test: concentration in plasma after dosing; conditions: dosed: dichloroacetic acid, 100 mg/kg, oral, Male, F344

O=C(O)CSCC(=O)O [Thiodiglycolic Acid]
Conditions | concentration in heart, Rat [1] [ng/g] | concentration in liver, Rat [2] [ng/g] | concentration in thymus, Rat [4] [ng/g]
1 h, Female, Harlan Sprague Dawley | 1670 | 71500 | 2560
1 h, Male, Harlan Sprague Dawley | 1760 | 107000 | 2750
2 h, Female, Harlan Sprague Dawley | 1120 | 21800 | 1650
2 h, Male, Harlan Sprague Dawley | 1340 | 108000 | 1940
3 h, Female, Harlan Sprague Dawley | 562 | 9460 | 1060
3 h, Male, Harlan Sprague Dawley | 1040 | 50900 | 1370
4 h, Female, Harlan Sprague Dawley | 414 | 2680 | 708
4 h, Male, Harlan Sprague Dawley | 476 | 45400 | 939
5.333 h, Female, Harlan Sprague Dawley | 232 | 2410 | 399
5.333 h, Male, Harlan Sprague Dawley | 388 | 29400 | 715
6.667 h, Female, Harlan Sprague Dawley | 238 | 2220 | 236
8 h, Female, Harlan Sprague Dawley | 328 | 246 | 487
10 h, Female, Harlan Sprague Dawley | – | 7570 | 215
10 h, Male, F344 | 362 | 4770 | 358
10 min, Female, Harlan Sprague Dawley | 8480 | 75000 | 8190
10 min, Male, F344 | 6870 | 148000 | 10000
20 min, Female, F344 | 4000 | 198000 | 3960
20 min, Female, Harlan Sprague Dawley | 4770 | 11000 | 4460
40 min, Female, Harlan Sprague Dawley | 2650 | 49400 | 3000
40 min, Male, Harlan Sprague Dawley | 2660 | 190000 | 2890

concentration in plasma [µg/mL], Rat [3], dosed: Thiodiglycolic Acid, 20 mg/kg, iv
Conditions | Female | Male
1 h, Harlan Sprague Dawley | 8.5 | 1.34
2 h, Harlan Sprague Dawley | 1.22 | 0.751
3 h, Harlan Sprague Dawley | 0.52 | 0.553
4 h, Harlan Sprague Dawley | 0.229 | 0.332
5.333 h, Harlan Sprague Dawley | 0.302 | 0.247
8 h, Harlan Sprague Dawley | 0.2 | –
10 h, F344 | – | 0.215
10 min, F344 | – | 25.6
10 min, Harlan Sprague Dawley | 37.5 | –
20 min, F344 | 6.7 | –
20 min, Harlan Sprague Dawley | 9.23 | –
40 min, Harlan Sprague Dawley | 3.52 | 1.81

Conditions | concentration in plasma [µg/mL]
Rat [5] | 0.934
Rat [6] | 0.339

O=C(O)C(Cl)Cl [dichloroacetic acid]
Rat [3], dosed: dichloroacetic acid
Conditions | concentration in plasma [µg/mL]
0.25 h, 10 mg/kg, oral, Male, Harlan Sprague Dawley | 1.6
0.25 h, 100 mg/kg, oral, Male, F344 | 24.9
0.5 h, 10 mg/kg, oral, Male, Harlan Sprague Dawley | 0.224
1 h, 40 mg/kg, oral, Female, Harlan Sprague Dawley | 5.91
1 h, 60 mg/kg, iv, Female, Harlan Sprague-Dawley | 23.2
1.25 h, 40 mg/kg, oral, Female, Harlan Sprague Dawley | 3.6
1.25 h, 100 mg/kg, oral, Male, F344 | 22.9
1.5 h, 40 mg/kg, oral, Female, Harlan Sprague Dawley | 4.5
2 h, 40 mg/kg, oral, Female, Harlan Sprague Dawley | 2.2
2 h, 60 mg/kg, iv, Female, Harlan Sprague-Dawley | 1.67
2 h, 100 mg/kg, oral, Male, F344 | 44.6
2 min, 10 mg/kg, iv, Male, F344 | 23.5
2 min, 10 mg/kg, oral, Male, Harlan Sprague Dawley | 0.222
2 min, 40 mg/kg, oral, Female, Harlan Sprague Dawley | 1.53
2 min, 100 mg/kg, oral, Male, F344 | 1.59
4 h, 100 mg/kg, oral, Male, F344 | 49.6
5 min, 10 mg/kg, iv, Male, F344 | 15.3
5 min, 10 mg/kg, oral, Male, Harlan Sprague Dawley | 0.822
5 min, 40 mg/kg, oral, Female, Harlan Sprague Dawley | 3.1
5 min, 100 mg/kg, oral, Male, F344 | 7.76
6 h, 100 mg/kg, oral, Male, F344 | 25
8 h, 100 mg/kg, oral, Male, F344 | 48.3
10 min, 10 mg/kg, iv, Male, F344 | 7.72
10 min, 10 mg/kg, oral, Male, Harlan Sprague Dawley | 1.45
10 min, 40 mg/kg, oral, Female, Harlan Sprague Dawley | 9.87
10 min, 100 mg/kg, oral, Male, F344 | 11.8
20 min, 10 mg/kg, iv, Male, F344 | 1.84
20 min, 10 mg/kg, oral, Male, Harlan Sprague Dawley | 0.829
20 min, 40 mg/kg, oral, Female, Harlan Sprague Dawley | 5.35
20 min, 100 mg/kg, oral, Male, F344 | 5.62
40 min, 10 mg/kg, oral, Male, Harlan Sprague Dawley | 0.184
40 min, 40 mg/kg, oral, Female, Harlan Sprague Dawley | 13.9
40 min, 100 mg/kg, oral, Male, F344 | 53.8
50 min, 10 mg/kg, oral, Male, Harlan Sprague Dawley | 0.17

Rat [7]
Conditions | concentration in plasma [µg/mL]
4 h | 25.9
10 min | 8.23
